Where “and” joins values, the source holds several entries; their conditions need not be identical. Identical values can stand only once.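 Cultured in 96-well plates, cells were exposed to test compound for 48 hours across five concentrations. The concentration for 50% growth inhibition is given as GI50. TGI: concentration producing complete growth inhibition.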
How the values were obtained:
Test in all cases: NCI anticancer screen, dose series, 48 h
EKVX NSCLC = tested on: EKVX NSCLC
SN12C renal = tested on: SN12C renal
A549 NSCLC = tested on: A549 NSCLC
TK-10 renal = tested on: TK-10 renal
SNB-75 CNS = tested on: SNB-75 CNS
OVCAR-4 ovarian = tested on: OVCAR-4 ovarian
MALME-3M melanoma = tested on: MALME-3M melanoma
HCC-2998 colon = tested on: HCC-2998 colon
PC-3 prostate = tested on: PC-3 prostate
MCF7 breast = tested on: MCF7 breast

Row | SMILES | TGI (EKVX NSCLC) | TGI (SN12C renal) | TGI (A549 NSCLC) | TGI (TK-10 renal) | TGI (SNB-75 CNS) | TGI (OVCAR-4 ovarian) | TGI (MALME-3M melanoma) | TGI (HCC-2998 colon) | GI50 (PC-3 prostate) | TGI (PC-3 prostate) | GI50 (EKVX NSCLC) | GI50 (SN12C renal) | GI50 (MCF7 breast) | TGI (MCF7 breast) | GI50 (A549 NSCLC) | GI50 (HCC-2998 colon) | GI50 (TK-10 renal) | GI50 (SNB-75 CNS) | GI50 (OVCAR-4 ovarian) | GI50 (MALME-3M melanoma)
1 | CC(C)(C)c1cc(C(=O)O)c(C(c2ccccc2)c2ccccc2C(=O)O)c(C(=O)O)c1 (stereo unspecified) | > 100 µM | 49.1 µM | > 100 µM | > 100 µM | 42.2 µM | 37.7 µM | > 100 µM |  |  |  |  |  |  |  |  |  |  |  |  | 
2 | CCCCOP1(=O)C=CC(Cl)=C(C)C1 (stereo unspecified) | > 100 µM | 49.8 µM | > 100 µM | 75.1 µM | 49.6 µM | 73.7 µM | 47.5 µM |  |  |  |  |  |  |  |  |  |  |  |  | 
3 | O=C1Cc2ccccc2CCc2ccccc21 | > 100 µM | > 100 µM | > 100 µM | > 100 µM | > 100 µM | > 100 µM | > 100 µM | > 100 µM |  |  |  |  |  |  |  |  |  |  |  | 
4 | CC(C)(C)OC(=O)n1c(Cl)c(C(=O)N=C=S)c2ccccc21 | 98.7 µM | > 100 µM | > 100 µM | > 100 µM | > 100 µM | > 100 µM |  | > 100 µM | 24.2 µM | > 100 µM | 29.6 µM | 67.1 µM | 37.2 µM | > 100 µM | 50 µM | 38.9 µM | 27.3 µM | > 100 µM | > 100 µM | 
5 | NC(=O)c1ncn(C2OC(CO)C(O)C2O)c1NC(=S)NC(=O)c1ccccc1 (stereo unspecified) | > 100 µM | > 100 µM | > 100 µM | > 100 µM | > 100 µM | > 100 µM | > 100 µM | > 100 µM |  |  |  |  |  |  |  |  |  |  |  | 
6 | O=c1ncccn1C1OC(CO)C(O)C1F (stereo unspecified) | > 100 µM | > 100 µM | > 100 µM | > 100 µM | > 100 µM | > 100 µM | > 100 µM | > 100 µM |  |  |  |  |  |  |  |  |  |  |  | 
7 | CN1C(=O)CC2(C)c3cc(C=O)ccc3N(C)C12 (stereo unspecified) | > 100 µM | > 100 µM | > 100 µM | > 100 µM | > 100 µM | > 100 µM | > 100 µM | > 100 µM |  |  |  |  |  |  |  |  |  |  |  | 
8 | Cc1cc(N(CCC#N)CCC#N)ccc1/C=C/C(=O)Nc1ccccc1Cl | > 100 µM | > 100 µM | > 100 µM | > 100 µM | > 100 µM | > 100 µM | > 100 µM | > 100 µM |  |  |  |  |  |  |  |  |  |  |  | 
9 | CC1(C)Oc2ccccc2N2O[C@@H]3C(=O)N(c4ccccc4)C(=O)[C@@H]3C21c1ccccc1 (stereo partly specified) | > 100 µM |  | 48.4 µM | 33.1 µM | 35.3 µM | 34.1 µM | 42.5 µM | > 100 µM |  |  |  |  |  |  |  |  |  |  |  | 
10 | Nc1nc(Cl)cc(NCCCCCCNc2cc(Cl)nc(N)n2)n1 | > 100 µM | > 100 µM | > 100 µM | > 100 µM | > 100 µM | > 100 µM |  | > 100 µM |  |  |  |  |  |  |  |  |  |  |  | 
11 | Cc1cc(S(N)(=O)=O)c(S/C(=N\NS(=O)(=O)c2ccccc2)c2ccc(Cl)c(Cl)c2)cc1Cl | > 100 µM | > 100 µM | 96.9 µM | > 100 µM |  | > 100 µM |  |  | 47.4 µM | > 100 µM | 48.1 µM | 34.1 µM | 30.5 µM | > 100 µM | 32.2 µM |  | 52 µM |  | 40.6 µM | 
12 | CCC1(Cl)C(=O)NC(=O)N(C2CC(O)C(CO)O2)C1N=[N+]=[N-] (stereo unspecified) | > 100 µM | > 100 µM | > 100 µM | > 100 µM | > 100 µM | > 100 µM | > 100 µM | > 100 µM |  |  |  |  |  |  |  |  |  |  |  | 
13 | C=CCN(N=O)C(=O)ON1C(=O)CCC1=O | > 100 µM | > 100 µM | > 100 µM | > 100 µM | > 100 µM | > 100 µM | > 100 µM | > 100 µM |  |  |  |  |  |  |  |  |  |  |  | 
14 | Cc1cc(C(=O)Nc2cc(Nc3ncccc3-c3ncnc4nc[nH]c34)ccc2F)cc(C(C)(C)C#N)c1 | > 100 µM | > 100 µM | > 100 µM | > 100 µM | > 100 µM | > 100 µM |  | > 78.9 µM | 7.13 µM | > 100 µM | 4.03 µM | 1.91 µM | 5.07 µM | > 100 µM | 3.77 µM | 0.415 µM | 4.07 µM | 8.92 µM | 5.33 µM | 
15 | N#CC1=C(N)NC(=S)C(C#N)C12Nc1ccccc1S2 (stereo unspecified) | 8.04 µM | 33.2 µM | 53.1 µM | 46.6 µM | 73 µM |  | 84 µM |  | 41 µM | > 100 µM | 0.793 µM | 14.4 µM | 8.14 µM | > 100 µM | 23.1 µM |  | 14.4 µM | 28.1 µM |  | 30.5 µM
16 | COc1ccc(-c2nc(/C=N/Nc3cc(C)nc4ccc(Br)cc34)c(C)o2)cc1 | 3.44 µM | 3.62 µM | 3.33 µM | 3.45 µM | 3.28 µM | 3.31 µM | 3.67 µM | 3.65 µM | 1.67 µM | 3.2 µM | 1.93 µM | 1.93 µM |  |  | 1.74 µM | 1.96 µM | 1.97 µM | 1.68 µM | 1.72 µM | 1.98 µM
17 | COc1cc(-c2nn3c(=O)n(-c4ccc(Cl)cc4)c(=O)nc3s2)cc(OC)c1OC | > 100 µM | > 100 µM | > 100 µM | 50 µM and 29.6 µM | 43.1 µM and 21.1 µM | 50 µM and 99.8 µM | > 100 µM | > 100 µM |  |  | > 50 µM | > 50 µM |  |  | > 50 µM | > 50 µM | 19.7 µM | 17.2 µM | 16.1 µM | > 50 µM
18 | CC12O[Te]34OC1(C)C(C)(O3)C2(C)O4 | 62.6 µM | 23 µM | 25.1 µM | 29.4 µM | > 8.75 µM | 27.4 µM | 32.7 µM | 14.1 µM |  |  |  |  |  |  |  |  |  |  |  | 
19 | C/C(=N\O)[C@H]1CC[C@@]2(C)[C@@H]3CC[C@H]4C(C)(C)/C(=N/O)CC[C@@]45CC35CC[C@]12C (stereo partly specified) | > 16.7 µM | > 16.7 µM | 9.59 µM | > 16.7 µM | 14.8 µM |  |  |  | 2.33 µM | 6.9 µM | 5.66 µM | 6.58 µM | 5.82 µM | > 16.7 µM | 3.92 µM |  | 8.17 µM | 7.46 µM |  | 

— PubChem BioAssay (NCI)
